Assay results taken from US8334299B2, “β-carboline for the treatment of neurodegenerative diseases” (Ellneuroxx, Ltd., priority 2007, dated 2012).

B1: GDNF: the protein glial cell line-derived neurotrophic factor, infused in Parkinson patients (Love et al.) (protein, UniProt P39905 78-211, looked up)
Glial cell line-derived …: SPDKQMAVLPRRERNRQAAAANPENSRGKGRRGQRGKNRGCVLTAIHLNVTDLGLGYETKEELIFRYCSGSCDAAETTYDKILKNLSRNRRLVSDKVGQACCRPIAFDDDLSFLDDNLVYHILRKHSAKRCGCI

Legend:
[1] = tested on: dopamine concentration in the striatum; assay: Chronic MPP+ infusion model of Parkinson's disease, dopamine concentration in the striatum; format: in vivo, rat; parameters: key to Anti-Parkinson test in comparison to 9-methyl-β-carboline: +: slightly better than 9-methyl-β-carboline; ±: the same as 9-methyl-β-carboline; −: slightly worse than 9-methyl-β-carboline; conditions: tested as described in example 8
Text: In the diagram the dopamine (DA) levels of the left and right striatum of the single rats are indicated.
To investigate Parkinson's disease acute in vivo models are used for years although chronic models would be a better model for the disease. Another disadvantage of the acute models is that ca. 40% of the animals die from the application of the neurotoxin. Therefore, we have chosen a chronic model in which comparably very low doses of neurotoxin 1-methyl-4-phenylpyridinium (MPP^+) were infused for 28 days into the left lateral ventricle of the rat brain. The substance was continuously applied through osmotic minipumps. Thereby, casualties were completely avoided. After four weeks, either solvent or equimolar amounts of the sample substance, namely neuroprotective betacarboline, resp. 9-alkyl-betacarboline was infused for two weeks via the same catheter. In a preliminary study for dose-finding the MPP^+ dose which leads to a reduction by 40% of the dopamine concentration in the striatum was determined. The dopamine concentration in the striatum is a characteristic marker for Parkinson's disease in which a degeneration of dopaminergic neurons occurs.
The compounds A to L were tested as described in example 8. The test results of the compounds A to L are indicated in the following table in comparison to 9-methyl-β-carboline.

[2] = tested on: dopaminergic neurons in the anterior putamen; conditions: patients suffering from Parkinson's disease, infusion; cited from earlier work

Row | Molecule | Anti-Parkinson test in comparison to 9-methyl-β-carboline [1] | cellular extensions of dopaminergic neurons in the anterior putamen [2] | clinical symptoms [2]
1 | C=CCn1c2ccccc2c2ccncc21 [Compound D] | + |  | 
2 | CC(C)C(C)Cn1c2ccccc2c2ccncc21 (centres unmarked) [Compound K] | ± |  | 
3 | CCn1c2ccccc2c2ccncc21 [Compound F] | ± |  | 
4 | CCCn1c2ccccc2c2ccncc21 [Compound A] | + |  | 
5 | COC(=O)CCn1c2ccccc2c2ccncc21 [Compound J] | ± |  | 
6 | CC(C)Cn1c2ccccc2c2ccncc21 [Compound E] | + |  | 
7 | CCCCCCCCCCCCCCn1c2ccccc2c2ccncc21 [Compound C] | ± |  | 
8 | c1ccc(Cn2c3ccccc3c3ccncc32)cc1 [Compound I] | − |  | 
9 | CN(C)CCn1c2ccccc2c2ccncc21 [Compound L] | + |  | 
10 | CCCCCCn1c2ccccc2c2ccncc21 [Compound B] | ± |  | 
11 | C#CCn1c2ccccc2c2ccncc21 [Compound H] | + |  | 
12 | COCCn1c2ccccc2c2ccncc21 [Compound G] | ± |  | 
13 | B1 |  | growth of cellular extensions | improvement in clinical symptoms
